Assays:
[1] = tested on: eIF2α phosphorylation in P. falciparum; assay: Western blot for phosphorylated-eIF2α; format: cell-based, Plasmodium falciparum
Procedure: Synchronous ring-stage YRScyt conditional knockdown line and the aptamer-regulatable control
700 the drug plate. Lowest drug treatment and a lethal dose of chloroquine (200 nM) served as reference
Two guide RNAs (gRNA1: […] and gRNA2:
Ring-stage P. falciparum parasites (Dd2 strain) at 10%
Using a modification of a published procedure (14), the
722 cells were labelled with O-propargyl-puromycin (OPP; 4 µM) for 1 h, washed 3x (PBS +3% serum) and
Flow cytometry was performed
730 hematocrit and 5% parasitemia. The RBC pellet was washed 3 x in PBS + cOmplete. Cells were centrifuged
The wash with PBS + cOmplete and
The pellet was resuspended in Bolt LDS sample
The samples were vortexed for 10 min at room temperature.
Secondary antibodies: goat
740 anti-rabbit IgG-peroxidase (Sigma-Aldrich-A0545; 1:20 000), goat anti-mouse IgG-peroxidase (Chemicon-
Chemiluminescence was detected using the Bio-Rad ChemiDocTM MP imaging
For the human mature YRS construct,
The YRS sequences were codon optimized for E. coli,
The vector was transformed into
PfYRS, PfYRSS234C and HsYRS were induced
Cell pellets were resuspended in 40 mL lysis
Cells were lysed by sonication (Microtip, QSonica)
The supernatant was applied to a 5
757 mL HisTrap HP column (GE Healthcare) and washed with 50 mL binding buffer containing 50 mM Tris-
His-YRS was eluted using a 0-500 mM
The eluted His-YRS was dialyzed overnight at 4°C
760 against 50 mM Tris-HCl, pH 8, 500 mM NaCl, 30 mM imidazole, 1 mM TCEP with the addition of His-
Cleaved His tags from His-YRS and TEV
YRS was further purified by gel filtration using a HiLoad 16/600 Superdex 200 column (GE

in vivo = settings: male, Sprague-Dawley, rat
Procedure: 625 of 50 mg/kg of compound on day 3 post-infection and measuring the effect on blood parasitemia by
626 microscopic analysis of Giemsa-stained blood smears (on days 3, 4, 5, 6 and 7 post-infection). Mice were
630 Human biological samples were sourced ethically; and their research use was in accord with the terms of
631 the informed consent. All animal studies were ethically reviewed and carried out in accredited facilities in
632 accordance with the relevant country’s directives and the institution’s Policy on the Care, Welfare and
633 Treatment of Animals.
635 Plasma exposure in infected mouse model
636 Compound was administered orally to two mice at 25 mg/kg on days 3, 4, 5, 6 after infection. On day 3,
637 blood samples (20 μL) were obtained at time points up to 24 hours after the first administration. Protein was
638 precipitated with acetonitrile and the remaining compound was assessed by LC-MS/MS in the selected reaction
641 Rat pharmacokinetics (PK) analyses
642 Sprague-Dawley rats (11 weeks old) were sourced from Hilltop Lab Animals, Inc (Scottdale, Pennsylvania,
643 USA). […]
648 0.5% formic acid in methanol and the supernatants were analysed by positive ion electrospray LC-MS for
649 the administered compound. Non-compartmental pharmacokinetic parameters were calculated from […]
660 IGM Genomics Center on the Illumina HiSeq 2500 in RapidRun mode to generate 100bp paired-end reads.

In the case of `Nc1ncnc2c1c(OC(F)F)nn2[C@@H]1O[C@H](COS(N)(=O)=O)[C@@H](O)[C@H]1O` [ML901], the eIF2α phosphorylation ([1]; eIK1 knockout parasites) was “does not result in eIF2α phosphorylation”, the eIF2α phosphorylation ([1]; wildtype P. falciparum cultures) was “triggers eIF2α phosphorylation” and the Vd (in vivo; iv, 1 mg/kg, Vss) was 4.89 L/kg. It also gave a Cmax (in vivo; po, 10 mg/kg, p.o. Cmax) of 130 nM.

— PMC7613620, “Reaction hijacking of tyrosine tRNA synthetase as a whole-of-life-cycle antimalarial strategy” (Science (New York, N.Y.), 2022)
